Reference: publication PMC7215935, “GM1 Oligosaccharide Crosses the Human Blood–Brain Barrier In Vitro by a Paracellular Route” (International Journal of Molecular Sciences, 2020)

Assays:
TrkA-ERK1/2 pathway = TrkA-ERK1/2 pathway activation in N2a cells (immunoblotting); format: cell-based, mouse; conditions: basolateral solution
Experimental: Precisely, [^3H]OligoGM1 (1 × 10^6 dpm) diluted into cold OligoGM1 solution (300 µM) was administered for 240 min to hBLECs in the upper compartment so that at a volume of 0.5 mL there was 150 nmol of OligoGM1. […] After the 240 min incubation period, the basolateral solution was screened to find the quantity of crossed OligoGM1 by measuring ^3H-radioactivity and was then administered to N2a cells for 24 h. For control cells, we administered a basolateral solution derived from hBLECs incubated with Transfectagro without OligoGM1. Morphological signals of neurodifferentiation were evaluated by cell observation and TrkA-ERK1/2 pathway activation was verified by immunoblotting (for procedural details see Supplementary Materials and [22, 23]).
Caco-2 cells are not listed as commonly misidentified cell line by the International Cell Line Authentication Committee. However it is reported that culture condition and cell origin can deeply affect Caco-2 morphology and behavior [4-6]. […]
Since mycoplasma could infect of Caco-2 cells, we validated the absence of any contamination by two methods (data not shown). […] Briefly culture supernatants were mixed with MycoAlert reagents according to manufacturer instruction and the luminescence was measured after 10 min using fluorimeter (BioTek, H1, Vermont, Winooski). […]
It is calculated according to the equation (1): […]

P-gp/BCRP = assay: ABC transporter competition assay (Caco-2 pump out), R123 efflux; conditions: Caco-2 cells, 10, 50 and 100 μM, vs control
Experimental: (§1) Briefly, Caco-2 cells in 96-well plates were washed once with RH buffer and incubated for 120 min with 10 µM R123 or for 15 min with 0.5 µM CMFDA. R123 and CMFD are substrates for the major efflux pumps expressed by BBB and intestine cells, i.e., P-gp/BCRP and MRPs, respectively. After the incubation period, Caco-2 cells were washed twice with RH buffer with or without test compounds (OligoGM1 at 10, 50, and 100 µM). The rate out (Kout) of Caco-2 cells for fluorescent dyes was monitored by fluorescence measurement (λex = 501 nm and λem = 538 nm for R123; λex = 485 nm and λem = 538 nm for CMFDA) using a microplate fluorescent reader (BioTek, H1, Vermont, Winooski). The amount of dye expelled from the cells was measured at 37 °C and every 5 min for one hour for R123 and every 2 min for 30 min for CMFDA. The rate out of the dye from cells was calculated as the slope of the curve of the cumulative amount of dye against the time (Kout = ∆pmol⁄∆t) and compared with the value in the presence of test compounds.

MRPs = assay: ABC transporter competition assay (Caco-2 pump out), CMFDA efflux; conditions: Caco-2 cells, 10, 50 and 100 μM, vs control
Experimental: as §1

SMILES: CC(=O)NC1C(O)CC(OC2C(O)C(OC3C(CO)OC(O)C(O)C3O)OC(CO)C2OC2OC(CO)C(O)C(OC3OC(CO)C(O)C(O)C3O)C2NC(C)=O)(C(=O)O)OC1C(O)C(O)CO (stereo not drawn) [OligoGM1, β-Gal-(1-3)-β-GalNAc-(1-4)-[α-Neu5Ac-(2-3)]-β-Gal-(1-4)-β-Glc]
- TrkA-ERK1/2 pathway (pTrkA, pERK1/2) (TrkA-ERK1/2 pathway): activation of the TrkA-ERK1/2 pathway
- effect on efflux (Kout) of R123 (P-gp/BCRP): did not identify any difference
- effect on efflux (Kout) of CMFDA (MRPs): did not identify any difference
